Test results from PubChem BioAssay (NCI).
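GI50 is the concentration that inhibits growth by half. The concentration for full growth arrest is given as TGI.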

What was measured:
Assay in all cases: NCI tumour cell line growth inhibition, 384-well format
SK-MEL-5 melanoma = test system: SK-MEL-5 melanoma
UACC-257 melanoma = test system: UACC-257 melanoma
NCI-H226 lung = test system: NCI-H226 lung
BT-549 breast = test system: BT-549 breast
SK-OV-3 ovarian = test system: SK-OV-3 ovarian
OVCAR-5 ovarian = test system: OVCAR-5 ovarian
NCI-H23 lung = test system: NCI-H23 lung
COLO 205 colon = test system: COLO 205 colon
PC-3 prostate = test system: PC-3 prostate
SF-295 CNS = test system: SF-295 CNS
EKVX NSCLC = test system: EKVX NSCLC
DU-145 prostate = test system: DU-145 prostate
SF-268 CNS = test system: SF-268 CNS
CCRF-CEM leukemia = test system: CCRF-CEM leukemia
CAKI-1 renal = test system: CAKI-1 renal
SW-620 colon = test system: SW-620 colon
SK-MEL-28 melanoma = test system: SK-MEL-28 melanoma
NCI-H522 lung = test system: NCI-H522 lung
MDA-MB-231 breast = test system: MDA-MB-231 breast
KM12 colon = test system: KM12 colon
NCI/ADR-RES ovarian = test system: NCI/ADR-RES ovarian
NCI-H460 NSCLC = test system: NCI-H460 NSCLC
MCF7 breast = test system: MCF7 breast
UO-31 renal = test system: UO-31 renal
HT29 colon = test system: HT29 colon
MDA-MB-435 melanoma = test system: MDA-MB-435 melanoma
ACHN renal = test system: ACHN renal
NCI-H322M lung = test system: NCI-H322M lung
SNB-19 CNS = test system: SNB-19 CNS
A498 renal = test system: A498 renal
MOLT-4 leukemia = test system: MOLT-4 leukemia
SF-539 CNS = test system: SF-539 CNS
SN12C renal = test system: SN12C renal
OVCAR-4 ovarian = test system: OVCAR-4 ovarian
OVCAR-8 ovarian = test system: OVCAR-8 ovarian
TK-10 renal = test system: TK-10 renal
K-562 leukemia = test system: K-562 leukemia
LOX IMVI melanoma = test system: LOX IMVI melanoma
SR leukemia = test system: SR leukemia
786-0 renal = test system: 786-0 renal
HCC-2998 colon = test system: HCC-2998 colon
RXF 393 renal = test system: RXF 393 renal
IGROV1 ovarian = test system: IGROV1 ovarian
MALME-3M melanoma = test system: MALME-3M melanoma
A549 NSCLC = test system: A549 NSCLC
M14 melanoma = test system: M14 melanoma
UACC-62 melanoma = test system: UACC-62 melanoma
T-47D breast = test system: T-47D breast
HL-60(TB) leukemia = test system: HL-60(TB) leukemia
HS 578T breast = test system: HS 578T breast
HOP-62 NSCLC = test system: HOP-62 NSCLC
OVCAR-3 ovarian = test system: OVCAR-3 ovarian
MDA-MB-468 breast = test system: MDA-MB-468 breast
SNB-75 CNS = test system: SNB-75 CNS
RPMI-8226 leukemia = test system: RPMI-8226 leukemia
HOP-92 NSCLC = test system: HOP-92 NSCLC
HCT-15 colon = test system: HCT-15 colon

**Q.** What does the source list for [2H]C([2H])([2H])NC(=O)c1nnc(NC(=O)C2CC2)cc1Nc1cccc(-c2ncn(C)n2)c1OC?
**A.** GI50 (SK-MEL-5 melanoma): 36.8 µM; TGI (SK-MEL-5 melanoma): > 100 µM; GI50 (UACC-257 melanoma): > 100 µM; TGI (UACC-257 melanoma): > 100 µM; GI50 (NCI-H226 lung): 43.9 µM; TGI (NCI-H226 lung): > 100 µM; GI50 (BT-549 breast): > 100 µM; TGI (BT-549 breast): > 100 µM; GI50 (SK-OV-3 ovarian): 5.93 µM; TGI (SK-OV-3 ovarian): 87.6 µM; GI50 (OVCAR-5 ovarian): > 100 µM; TGI (OVCAR-5 ovarian): > 100 µM; GI50 (NCI-H23 lung): 43.7 µM; TGI (NCI-H23 lung): > 100 µM; GI50 (COLO 205 colon): > 100 µM; TGI (COLO 205 colon): > 100 µM; GI50 (PC-3 prostate): 77.9 µM; TGI (PC-3 prostate): > 100 µM; GI50 (SF-295 CNS): 33.2 µM; TGI (SF-295 CNS): > 100 µM; GI50 (EKVX NSCLC): > 100 µM; TGI (EKVX NSCLC): > 100 µM; GI50 (DU-145 prostate): 16.4 µM; TGI (DU-145 prostate): > 100 µM; GI50 (SF-268 CNS): > 100 µM; TGI (SF-268 CNS): > 100 µM; GI50 (CCRF-CEM leukemia): 16.6 µM; TGI (CCRF-CEM leukemia): 48.6 µM; GI50 (CAKI-1 renal): 14.6 µM; TGI (CAKI-1 renal): > 100 µM; GI50 (SW-620 colon): 93.5 µM; TGI (SW-620 colon): > 100 µM; GI50 (SK-MEL-28 melanoma): 72.9 µM; TGI (SK-MEL-28 melanoma): > 100 µM; GI50 (NCI-H522 lung): 79.1 µM; TGI (NCI-H522 lung): > 100 µM; GI50 (MDA-MB-231 breast): 29.2 µM; TGI (MDA-MB-231 breast): > 100 µM; GI50 (KM12 colon): 30.2 µM; TGI (KM12 colon): > 100 µM; GI50 (NCI/ADR-RES ovarian): 37.4 µM; TGI (NCI/ADR-RES ovarian): > 100 µM; GI50 (NCI-H460 NSCLC): 21.3 µM; TGI (NCI-H460 NSCLC): > 100 µM; GI50 (MCF7 breast): > 100 µM; TGI (MCF7 breast): > 100 µM; GI50 (UO-31 renal): > 100 µM; TGI (UO-31 renal): > 100 µM; GI50 (HT29 colon): > 100 µM; TGI (HT29 colon): > 100 µM; GI50 (MDA-MB-435 melanoma): > 100 µM; TGI (MDA-MB-435 melanoma): > 100 µM; GI50 (ACHN renal): 16.6 µM; TGI (ACHN renal): > 100 µM; GI50 (NCI-H322M lung): 23.3 µM; TGI (NCI-H322M lung): > 100 µM; GI50 (SNB-19 CNS): 87.4 µM; TGI (SNB-19 CNS): > 100 µM; GI50 (A498 renal): 6.3 µM; TGI (A498 renal): > 100 µM; GI50 (MOLT-4 leukemia): 15.9 µM; TGI (MOLT-4 leukemia): 36.8 µM; GI50 (SF-539 CNS): 79.2 µM; TGI (SF-539 CNS): > 100 µM; GI50 (SN12C renal): 32.6 µM; TGI (SN12C renal): > 100 µM; GI50 (OVCAR-4 ovarian): > 100 µM; TGI (OVCAR-4 ovarian): > 100 µM; GI50 (OVCAR-8 ovarian): 43.6 µM; TGI (OVCAR-8 ovarian): > 100 µM; GI50 (TK-10 renal): > 100 µM; TGI (TK-10 renal): > 100 µM; GI50 (K-562 leukemia): 43.4 µM; TGI (K-562 leukemia): > 100 µM; GI50 (LOX IMVI melanoma): 25 µM; TGI (LOX IMVI melanoma): > 100 µM; GI50 (SR leukemia): 29.9 µM; TGI (SR leukemia): > 100 µM; GI50 ([…]-0 renal): 66.2 µM; TGI (786-0 renal): > 100 µM; GI50 (HCC-2998 colon): > 100 µM; TGI (HCC-2998 colon): > 100 µM; GI50 (RXF 393 renal): > 100 µM; TGI (RXF 393 renal): > 100 µM; GI50 (IGROV1 ovarian): 26.4 µM; TGI (IGROV1 ovarian): > 100 µM; GI50 (MALME-3M melanoma): 32.2 µM; TGI (MALME-3M melanoma): > 100 µM; GI50 (A549 NSCLC): 84.4 µM; TGI (A549 NSCLC): > 100 µM; GI50 (M14 melanoma): 22.8 µM; TGI (M14 melanoma): > 100 µM; GI50 (UACC-62 melanoma): 25.5 µM; TGI (UACC-62 melanoma): > 100 µM; GI50 (T-47D breast): > 100 µM; TGI (T-47D breast): > 100 µM; GI50 (HL-60(TB) leukemia): 10.9 µM; TGI (HL-60(TB) leukemia): 26.7 µM; GI50 (HS 578T breast): 18 µM; TGI (HS 578T breast): > 100 µM; GI50 (HOP-62 NSCLC): 25.1 µM; TGI (HOP-62 NSCLC): 84.9 µM; GI50 (OVCAR-3 ovarian): 41.6 µM; TGI (OVCAR-3 ovarian): > 100 µM; GI50 (MDA-MB-468 breast): 13.3 µM; TGI (MDA-MB-468 breast): 42.3 µM; GI50 (SNB-75 CNS): 87.9 µM; TGI (SNB-75 CNS): > 100 µM; GI50 (RPMI-8226 leukemia): 3.93 µM; TGI (RPMI-8226 leukemia): 27.6 µM; GI50 (HOP-92 NSCLC): 25.4 µM; TGI (HOP-92 NSCLC): > 100 µM; GI50 (HCT-15 colon): 12.9 µM; TGI (HCT-15 colon): > 100 µM
